Laboratory results: ChEMBL document CHEMBL4028838, “Structure-related protein tyrosine phosphatase 1B inhibition by naringenin derivatives” (Bioorg Med Chem Lett, 2017)
pIC50: −log10 of the molar value.

Columns and labels:
[1] = biological target: T1, Tyrosine-protein phosphatase non-receptor type 1 (Homo sapiens, UniProt P18031); test: Inhibition of PTP1B (unknown origin) using pNPP as substrate pretreated for 10 mins followed by substrate addition measured after 20 mins by spectrophotometric method
T1 sequence (P18031 whole entry): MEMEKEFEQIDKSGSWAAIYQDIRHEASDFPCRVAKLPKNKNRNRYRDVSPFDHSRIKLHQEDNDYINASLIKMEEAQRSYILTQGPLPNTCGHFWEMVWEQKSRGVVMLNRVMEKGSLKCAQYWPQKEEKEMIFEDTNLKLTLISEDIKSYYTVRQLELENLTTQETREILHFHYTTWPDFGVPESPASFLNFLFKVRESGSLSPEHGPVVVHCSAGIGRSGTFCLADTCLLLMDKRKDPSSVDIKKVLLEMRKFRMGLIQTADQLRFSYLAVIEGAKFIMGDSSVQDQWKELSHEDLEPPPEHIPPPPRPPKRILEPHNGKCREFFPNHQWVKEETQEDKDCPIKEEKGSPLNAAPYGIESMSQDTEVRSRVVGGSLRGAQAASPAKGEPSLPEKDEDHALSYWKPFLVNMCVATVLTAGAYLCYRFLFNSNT

[2] = Inhibition of alpha-glucosidase (unknown origin)
[3] = test system: HepG2; test: Anti-diabetic activity in insulin-resistant human HepG2 cells assessed as increase in insulin-stimulated 2-NBDG uptake at 50 uM pretreated for 24 hrs followed by 2-NBDG addition measured after 30 mins by fluorescence assay relative to control; format: functional
[4] = test system: HepG2; test: Anti-diabetic activity in insulin-resistant human HepG2 cells assessed as increase in insulin-stimulated 2-NBDG uptake pretreated for 24 hrs followed by 2-NBDG addition measured after 30 mins by fluorescence assay; format: functional, cell-based
[5] = test system: HepG2; test: Anti-diabetic activity in insulin-resistant human HepG2 cells assessed as increase in insulin-stimulated 2-NBDG uptake at 10 uM pretreated for 24 hrs followed by 2-NBDG addition measured after 30 mins by fluorescence assay relative to control; format: functional

Compound | pIC50 [1] | pIC50 [2] | Activity [3] [%] | Activity [4] | Activity [5] [%]
C[C@@H]1O[C@@H](O[C@H]2[C@H](Oc3cc(O)c4c(c3)O[C@H](c3ccc(O)cc3)CC4=O)O[C@H](CO)[C@@H](O)[C@@H]2O)[C@H](O)[C@H](O)[C@H]1O [NARINGIN] | 4.04 | < 3.70 | 82.17 | Dose-dependent effect | 
C[C@H]1O[C@H](O[C@H]2[C@H](O)[C@@H](O)[C@@H](O[C@H]3[C@H](O)[C@@H](O)C(O)O[C@@H]3CO)O[C@@H]2CO)[C@H](O)[C@@H](O)[C@@H]1N[C@H]1C=C(CO)[C@@H](O)[C@H](O)[C@H]1O (stereo partly drawn) [ACARBOSE] |  | 3.75 |  |  | 
C[C@@H]1O[C@@H](OC[C@H]2O[C@@H](Oc3cc(O)c4c(c3)O[C@H](c3ccc(O)cc3)CC4=O)[C@H](O)[C@@H](O)[C@@H]2O)[C@H](O)[C@H](O)[C@H]1O [NARIRUTIN] | 4.25 | < 3.70 | 86.93 | Dose-dependent effect | 
O=C1C[C@@H](c2ccc(O)cc2)Oc2cc(O)cc(O)c21 [NARINGENIN] | 3.89 | 4.97 | 71.23 | Dose-dependent effect | 
O=C1C[C@@H](c2ccc(O)cc2)Oc2cc(O[C@@H]3O[C@H](CO)[C@@H](O)[C@H](O)[C@H]3O)cc(O)c21 [PRUNIN] | 4.76 | 3.97 | 109.45 | Dose-dependent effect | 
CN(C)C(=N)NC(=N)N [METFORMIN] |  |  |  |  | 125
